# In ChEMBL document CHEMBL1201862, “PubChem BioAssay data set” (2004):
#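 Five concentrations, 48 hours, 96-well plates. GI50: concentration for 50% inhibition of growth.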 Activity calls are given as the source filed them. No stated cut-off is given here; in the data, active = GI50 up to about 1.1 µM and inactive = higher.
# Legend:
# Assay in all cases: NCI tumour cell line growth inhibition, 48 h
# [1] = system: HOP-62
# [2] = system: MOLT-4
# [3] = system: SW-620
# [4] = system: SN12C
# [5] = system: UO-31
# [6] = system: TK-10
# [7] = system: CCRF-CEM
# [8] = system: SF-539
# [9] = system: DU-145
# [10] = system: UACC-257
# [11] = system: A549
# [12] = system: SF-295
# [13] = system: NCI-H226
# [14] = system: SNB-19
# [15] = system: OVCAR-4
# [16] = system: NCI-H522
# [17] = system: HT-29
# [18] = system: SK-MEL-2
# [19] = system: LOX IMVI
# [20] = system: U-251
# [21] = system: NCI/ADR-RES
# [22] = system: SK-OV-3
# [23] = system: NCI-H460
# [24] = system: T47D
# [25] = system: MDA-MB-231
# [26] = system: MDA-N
# [27] = system: IGROV-1
# [28] = system: CAKI-1
# [29] = system: COLO 205
# [30] = system: OVCAR-3
# [31] = system: NCI-H23
# [32] = system: Hs-578T
# [33] = system: RXF 393
# [34] = system: A498
# [35] = system: BT-549
# [36] = system: M14
# [37] = system: RPMI-8226
# [38] = system: OVCAR-5
# [39] = system: 786-0
# [40] = system: HCT-15
# [41] = system: HOP-92
# [42] = system: SK-MEL-28
# [43] = system: SK-MEL-5
# [44] = system: Malme-3M
# [45] = system: MDA-MB-435
# [46] = system: ACHN
# [47] = system: KM12
# [48] = system: SNB-75
# [49] = system: OVCAR-8
# [50] = system: SF-268
# [51] = system: EKVX
# [52] = system: MCF7
# [53] = system: HCT-116
# [54] = system: K562
# [55] = system: PC-3
# [56] = system: UACC-62
compound,measurement,setting,value
CC(Nc1cccc(Cl)c1)c1ccncc1 (configuration not stated),GI50,[1],> 100 µM (inactive)
same,GI50,[2],31 µM (inactive)
same,GI50,[3],> 100 µM (inactive)
same,GI50,[4],> 100 µM (inactive)
same,GI50,[5],7.21 µM (inactive)
same,GI50,[6],> 100 µM (inactive)
same,GI50,[7],> 100 µM (inactive)
same,GI50,[8],> 100 µM (inactive)
same,GI50,[9],94.4 µM (inactive)
same,GI50,[10],74.1 µM (inactive)
same,GI50,[11],> 100 µM (inactive)
same,GI50,[12],> 100 µM (inactive)
same,GI50,[13],44.3 µM (inactive)
same,GI50,[14],> 100 µM (inactive)
same,GI50,[15],> 100 µM (inactive)
same,GI50,[16],83.6 µM (inactive)
same,GI50,[17],> 100 µM (inactive)
same,GI50,[18],> 100 µM (inactive)
same,GI50,[19],> 100 µM (inactive)
same,GI50,[20],> 100 µM (inactive)
same,GI50,[21],51.3 µM (inactive)
same,GI50,[22],15.8 µM (inactive)
same,GI50,[23],> 100 µM (inactive)
same,GI50,[24],27.4 µM (inactive)
same,GI50,[25],> 100 µM (inactive)
same,GI50,[26],> 100 µM (inactive)
same,GI50,[27],> 100 µM (inactive)
same,GI50,[28],40.7 µM (inactive)
same,GI50,[29],> 100 µM (inactive)
same,GI50,[30],49.4 µM (inactive)
same,GI50,[31],71.3 µM (inactive)
same,GI50,[32],> 100 µM (inactive)
same,GI50,[33],42.8 µM (inactive)
same,GI50,[34],95.9 µM (inactive)
same,GI50,[35],> 100 µM (inactive)
same,GI50,[36],> 100 µM (inactive)
same,GI50,[37],75.2 µM (inactive)
same,GI50,[38],51.5 µM (inactive)
same,GI50,[39],> 100 µM (inactive)
same,GI50,[40],> 100 µM
same,GI50,[41],73.1 µM (inactive)
same,GI50,[42],> 100 µM (inactive)
same,GI50,[43],31.6 µM (inactive)
same,GI50,[44],> 100 µM (inactive)
same,GI50,[45],56.2 µM (inactive)
same,GI50,[46],87.1 µM (inactive)
same,GI50,[47],> 100 µM (inactive)
same,GI50,[48],> 100 µM (inactive)
same,GI50,[49],88.3 µM (inactive)
same,GI50,[50],> 100 µM (inactive)
same,GI50,[51],57.9 µM (inactive)
same,GI50,[52],> 100 µM (inactive)
same,GI50,[53],70.8 µM (inactive)
same,GI50,[54],23.1 µM (inactive)
same,GI50,[55],30.5 µM (inactive)
O=[N+]([O-])c1ccc(/N=N/c2c(O)ccc3cc(S(=O)(=O)O)ccc23)cc1,GI50,[1],> 100 µM (inactive)
same,GI50,[2],> 100 µM (inactive)
same,GI50,[3],> 100 µM (inactive)
same,GI50,[4],> 100 µM (inactive)
same,GI50,[5],> 100 µM (inactive)
same,GI50,[6],> 100 µM (inactive)
same,GI50,[7],> 100 µM (inactive)
same,GI50,[9],> 100 µM (inactive)
same,GI50,[10],> 100 µM (inactive)
same,GI50,[11],> 100 µM (inactive)
same,GI50,[12],> 100 µM (inactive)
same,GI50,[14],> 100 µM (inactive)
same,GI50,[15],> 100 µM (inactive)
same,GI50,[16],> 100 µM (inactive)
same,GI50,[17],> 100 µM (inactive)
same,GI50,[18],> 100 µM (inactive)
same,GI50,[19],> 100 µM (inactive)
same,GI50,[20],> 100 µM (inactive)
same,GI50,[21],> 100 µM (inactive)
same,GI50,[22],> 100 µM (inactive)
same,GI50,[24],> 100 µM (inactive)
same,GI50,[56],> 100 µM (inactive)
same,GI50,[25],> 100 µM (inactive)
same,GI50,[26],> 100 µM (inactive)
same,GI50,[27],> 100 µM (inactive)
same,GI50,[28],> 100 µM (inactive)
same,GI50,[29],> 100 µM (inactive)
same,GI50,[30],> 100 µM (inactive)
same,GI50,[31],> 100 µM (inactive)
same,GI50,[32],> 100 µM (inactive)
same,GI50,[33],> 100 µM (inactive)
same,GI50,[34],> 100 µM (inactive)
same,GI50,[35],> 100 µM (inactive)
same,GI50,[36],> 100 µM (inactive)
same,GI50,[37],> 100 µM (inactive)
same,GI50,[38],> 100 µM (inactive)
same,GI50,[39],> 100 µM (inactive)
same,GI50,[40],> 100 µM
same,GI50,[41],> 100 µM (inactive)
same,GI50,[42],> 100 µM (inactive)
same,GI50,[43],> 100 µM (inactive)
same,GI50,[44],> 100 µM (inactive)
same,GI50,[45],> 100 µM (inactive)
same,GI50,[46],> 100 µM (inactive)
same,GI50,[47],> 100 µM (inactive)
same,GI50,[48],> 100 µM (inactive)
same,GI50,[49],> 100 µM (inactive)
same,GI50,[50],> 100 µM (inactive)
same,GI50,[51],> 100 µM (inactive)
same,GI50,[53],> 100 µM (inactive)
same,GI50,[54],> 100 µM (inactive)
same,GI50,[55],> 100 µM (inactive)
